Measurements published in patent US9351971B2, “Substituted 2,2′-biphenazines for treating diseases” (Eutropics Pharmaceuticals, Inc., priority 2010, dated 2016).
Entries after “also recorded” stand apart in the source; their conditions may differ.

Assays:
[1] = system: mitochondria in semi-permeabilized SUDHL-10 cells; assay: In situ mitochondrial assay (cytochrome c release), SUDHL-10; format: cell-based; conditions: SUDHL-10 (DHL-10), Bax/Bak deficient, 10 uM
Excerpt: The on-target activity of compound II-19 was validated. Changes in mitochondrial integrity were observed utilizing anti-cytochrome c conjugated to Alcxa488 (BD). When the mitochondria are intact, they retain cytochrome c and have bright, punctate staining with the antibody whereas cells with compromised mitochondrial integrity will lose cytochrome c and will not stain with the antibody. This can be observed by microscopy as well as measured by a shift in fluorescence on the FL1 channel of a flow cytometer.
The selective response of mitochondria in semi-permeabilized cell lines to the compounds was observed. The assay was adapted from (Campos et al. (2006) Cytometry Part A. 69(A):515-523).
Suspension cell lines SUDHL10 and SUDHL6 were grown in RPMI, washed once in 1xPBS and re-suspended at a concentration of 2e6/ml in assay buffer with 0.0025% Digitonin. Assay buffer; 300 mM Trehalose, 10 mM HEPES-KOH pH 7.7, 80 mM KCl, 1 mM EGTA, 1 mM EDTA, 0.1% BSA, 5 mM Succinate. Cells are incubated with test and control compounds at 10^6 cells/treatment for 1 hour at room temperature. […] Cytochrome c loss was measured by microscopy. At least 100 cells per treatment were counted and scored as positive for cytochrome c loss if they lacked staining. In both methods DMSO was calculated as 0% cytochrome c loss and the Bim response for DHL6 was used to determine 100% cytochrome c loss.

[2] = Pharmacokinetics of compound II-19 i.p. in male ICR mice; format: in vivo, mouse; conditions: 10 mg/kg
Experimental: FIG. 11 is a graph of the pharmacokinetics of compound II-19 clearance in mouse plasma. Pharmacokinetic profile of Compound II-19 in. male ICR mice is shown. Compound II-19 was dissolved in 5% DMSO, 15% hydroxypropyl-beta-cyclodexmain, and 50 mM Tris in water to yield a nominal concentration of 5 mg/mL. This solution was administered intraperintoncally to […] male ICR mice at a dose of 10 mg/kg. Three mice in each group were used for blood, collection, at each of 8 time points: 5 minutes, 0.25 hrs, 0.5 hrs, 1 hr, 2 hrs, 4 hrs, 8 hrs, and 24 hrs postdose. Plasma samples at these time points were analyzed for the quantity of compound II-19 by standard liquid chromatography/mass spectroscopy methods.
Pharmacokinetic studies were conducted on compound II-19 to assess plasma clearance and distribution in male ICR mice. Compounds were administered i.p. (as in the xenograft study, Example 8) at 10 mg/kg. Blood samples were collected at various time points (pre-injection, 5 min, 15 min, 30 min, 1 h, 2 h, 4 h, 8 h and 24 h), and centrifuged to remove red blood cells. […] Plasma levels of drug were quantified by LC-MS (C18 column elided with linear gradient from 0% acetonitrile, 1% formic acid to 100% acetonitrile, 1% formic acid) against a set of standards prepared by diluting a known quantity of II-19 into mouse plasma.

Bcl-xL = target: T1, Bcl-xL (Homo sapiens, UniProt Q07817); assay: Fluorescence polarization assay, Bim BH3 peptide binding to GST-Bcl-xL; conditions: Bim-BH3-FITC peptide, read-out: IC50, inhibition of Bim-BH3 peptide binding to Bcl-xL
T1 construct: made in house; host or cells: E. coli
T1 sequence (Q07817 whole entry): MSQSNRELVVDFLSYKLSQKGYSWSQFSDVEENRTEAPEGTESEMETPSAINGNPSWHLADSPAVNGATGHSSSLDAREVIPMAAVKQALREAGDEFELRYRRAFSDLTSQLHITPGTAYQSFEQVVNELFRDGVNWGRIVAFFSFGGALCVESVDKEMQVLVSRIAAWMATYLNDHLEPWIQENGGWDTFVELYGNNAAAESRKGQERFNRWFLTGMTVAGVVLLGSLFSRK
Excerpt: A nineteen amino acid peptide, corresponding to the BH3 domain of Bim, with the sequence FITC-GGGIAQELRRIGDEFNAY (SEQ ID NO: 1) was labeled with the tluorophore FITC according to the manufacturer's instructions (Molecular Probes, Eugene, Oreg.). This sequence was identified as being able to bind to purified Bcl-xL protein (Sattler et al. (1997) Science 275(5302): 983-86) and to have biological activity in cells (Holinger et al. J. Biol. Chem. 274; 13298-1330).
In addition, recombinant GST -Mcl-1 and GST-Bcl-xL fusion proteins were generated in E.coli and purified using glutathione-sepharose beads using conventional techniques known to those skilled in the fields of biochemistry and molecular biology, (methods for preparation are described in Strategies for Protein Purification and Characterization, Marshak, D, Kadonga, J, Burgess R, Knuth, M, Brennan, W, Sue-Hwa, L, CSH press, Cold Spring Harbor, N.Y.). Binding of the recombinant proteins to the fluorescent Bim BH3 domain was confirmed by titration of increasing concentrations of the recombinant proteins against a constant amount of labeled Bim peptide (16.65 nM). Quantitation of binding was accomplished by FP assay with mP measurements made on the Analyst-GT reader (Molecular Devices, Sunnyvale, Calif.).
Further, the ability of compound A to disrupt the interaction between the fluorescent Bim BH3 peptide and the two fusion proteins was assessed using a fluorescence polarization assay. […]
(§1) Experiments are performed using the fluorescence polarization assay as described in Example 2. […] The IC50 for blocking each BH3 peptide from Mcl-1 are assessed using FP, as described in Example 2.
as §1

COC(=O)c1ccc(O)c2nc3c(C=O)c(O)c(-c4c(O)c(C=O)c5nc6c(O)ccc(C(=O)OC)c6nc5c4O)c(O)c3nc12 [II-19, dimethyl 4,4′-diformyl-1,1′,3,3′,6,6′-hexahydroxy-[2,2′-biphenazine]-9,9′-dicarboxylate]
cytochrome c release from mitochondria [1]: but not BAX/BAK-deficient SUDHL-10 cell line; also recorded: lack of activity | time for which circulating drug levels can be sustained [2]: > 24 h | half-life ([2]; mouse, plasma, ip): > 20 h | IC50 (Bcl-xL): 15 nM
